Series [1] relates to zebrafish lateral line hair cells. Nature of the series: Ototoxic dose response in myo6b::gfp zebrafish larvae. The class given is in vivo, Danio rerio. The note with it: myo6b::gfp fish; read-out: dose required to elicit 50% of maximal HC damage (EC50). As for the experimental part: For drug dose response testing, zebrafish of the wildtype genetic background AB (Table 1) and fish that were transgenic for GFP under the myo6b HC-specific promoter (Tg (myo6b:EGFP), Table 1) were raised as described previously ([Westerfield, 2007]; [Farr et al., 2020]). […]
The resulting images were analyzed for dose-response and drug interaction characteristics with the PEPITA software package, which can be found on GitHub (https://github.com/ma-lab-cgidr/PEPITA-tools). […] Manual masks were created on occasion for avoidance of fluorescent contamination, adjusted segmenting for myo6b::gfp fish to remove inner ear HC fluorescence, or exclusion of dead or damaged fish. Each fish was then adjusted for autofluorescence using the fluorophore-free red channel and scored based on the sum of green fluorescence pixel values surrounding 10 of the top 15 brightest pixels in the masked image (Figures 1B–E). These scores were standardized by comparison with the median score of wells containing untreated fish and a score representing no remaining HC fluorescence, both derived for each plate. […]
To further explore the mechanism of macrolide and aminoglycoside antagonism, we fluorescently labeled the aminoglycosides neomycin and gentamicin with Texas Red-X succinimidyl ester to track HC uptake with and without macrolide treatment (Table 1). […] Drug-induced injury was quantified by loss of fluorescence in HCs. […]

The test system is the same in series [2]. Briefly: Standard assay: manual hair cell counting from individual neuromasts (confocal). The class given is in vivo, Danio rerio. The note with it: same representative experiment as PEPITA curve; read-out: EC50 (Standard Assay, normalized HC counts from individual neuromasts). As to the method:
To prepare the fish for confocal microscopy, fish were fixed in 2% paraformaldehyde for 1 hour at room temperature as described previously ([Philip et al., 2018]), before being transferred to fluoromount and mounted between two glass coverslips. To avoid crushing the fish, a dot of nail polish was placed on each corner of the coverslip so that the top coverslip sat slightly above the bottom coverslip where the fish was mounted. Fluorescent confocal microscopy was performed using a Leica Stellaris 8 microscope. Cranial lateral line neuromasts of each fish were imaged under an HC PL APO CS2 40x/1.30 oil objective with a 405 nm laser and 541/47 emission filter. Images were taken as z-stacks in 0.66 µm steps. Stacks were transformed into average intensity projections and prepared for visual analysis in ImageJ.
For hair cell survival quantification from individual neuromasts, trained observers counted surviving hair cells in confocal images of neuromasts of larvae that had been treated with various doses of neomycin. Two to eight neuromasts were scored per condition, and counts for each neuromast were averaged between two scorers. These counts were divided by previously characterized mean hair cell counts ([Harris et al., 2003]), matched by anatomical position, to yield a position-scaled measure of HCs present in each neuromast. […]

The test system is the same in series [3]. Nature of the series: PEPITA quantification of ototoxicity in YO-PRO-1-stained AB zebrafish larvae. The class given is in vivo. As for the experimental part: Therefore, at 5 dpf, larvae were transferred to 12-well plates (5–11 fish per well, 1 well per condition) containing the relevant compound or combination diluted with ICS water, or ICS water alone or high-dose neomycin to serve as controls. Unless otherwise noted, fish were exposed to drug (either an individual compound or a pairwise combination of compounds) for 4 h, as a balance between longer exposure times for accommodating varied kill kinetics and shorter exposure times for technical tractability. Treatments with multiple drugs involved co-administering a prepared solution consisting of both drugs with defined concentrations in ICS water.
Fluorescence microscopy was performed using a Keyence BZ-X800 microscope imaging system, which enables high-throughput semi-automated imaging of 96-well plates.
Each image was masked using automated object detection to include only the fish itself. Manual masks were created on occasion for avoidance of fluorescent contamination, adjusted segmenting for myo6b::gfp fish to remove inner ear HC fluorescence, or exclusion of dead or damaged fish. Each fish was then adjusted for autofluorescence using the fluorophore-free red channel and scored based on the sum of green fluorescence pixel values surrounding 10 of the top 15 brightest pixels in the masked image (Figures 1B–E). These scores were standardized by comparison with the median score of wells containing untreated fish and a score representing no remaining HC fluorescence, both derived for each plate.
Wells where the expected response ( Ra×Rb ) and observed response ( Rab ) were both less than 10% or greater than 90% were excluded from aggregation to reduce the effect of our choice of dose range. The remaining wells were summarized by averaging into a composite interaction score for the combination; we refer to this metric as the “windowed excess over Bliss” (wEOB).

The results in this text go back to PMC10955247, “In vivo screening for toxicity-modulating drug interactions identifies antagonism that protects against ototoxicity in zebrafish” (Frontiers in Pharmacology, 2024).

Where a name gives a salt, the structure may show the parent alone.

On to `NC[C@@H]1O[C@H](O[C@H]2[C@@H](O)[C@H](O[C@@H]3[C@@H](O)[C@H](N)C[C@H](N)[C@H]3O[C@H]3O[C@H](CN)[C@@H](O)[C@H](O)[C@H]3N)O[C@@H]2CO)[C@H](N)[C@@H](O)[C@@H]1O` [Neomycin, Neomycin sulfate hydrate], for which the EC50 in series [1] came out at 20 µM; in series [2], 2 µM; in series [3] (representative experiment, HC damage dose response, read-out: EC50 (PEPITA, relative fluorescence units)) it was 1.4 µM. Further, the “RFU (residual HC fluorescence)” value in series [3] (AZM 0 μM, NEO 6.4 μM, 4 h) was 10%; in series [3] (AZM 96 μM + NEO 6.4 μM, 4 h), 88%. Besides, the “windowed excess over Bliss (wEOB)” value in series [3] (AZM + NEO checkerboard, negative = antagonism) was −0.36. Further, in series [3] (NEO alone, 4 h), the “dose needed to elicit 75% maximal HC damage (EC75)” value came out at 3.3 µM. Moreover, the “ototoxic interaction with AZM” value in series [3] (co-administration with AZM) was “otoprotective antagonistic interactions”. Also, in series [3] (interaction with AZM, zebrafish wEOB vs average of E. coli, M. abscessus, S. aureus), the “shift toward antagonism in lateral line HC damage as compared to inhibition of the bacterial species on average” value is on record as 44 %pt. Besides, the EC75 shift in series [3] (ototoxin co-administered with azithromycin (AZM) vs administered alone) is given as 13 fold; in series [3] (ototoxin co-administered with azithromycin (AZM) vs administered alone, listed as Neomycin (NEO)), 13-fold; in series [3] (ototoxin co-administered with erythromycin (ERY) vs administered alone, listed as NEO), 8 fold; in series [3] (ototoxin co-administered with erythromycin (ERY) vs administered alone, listed as Neomycin (NEO)) it was 8-fold. Further, the “ototoxic interaction with clarithromycin (CLM)” value in series [3] (preliminary experiments) is “antagonistic interactions”.

As usually defined, the EC50 is the concentration giving half of the maximal effect.
